One series deals with P-gp (MDR1), human. As to the kind of experiment: Apparent permeability from apical to basolateral side in MDCK-MDR1 cells transfected with human p-gp. It is filed as ADME, cell-based, Canis lupus familiaris. To be noted: dog.
Series [1] in a line: Volume of distribution at steady state in rat. It is filed as ADME. To be noted: in vivo, read-out: Vdss.

Drawing on ChEMBL document CHEMBL4602708, “Discovery of CNS-Penetrant Apoptosis Signal-Regulating Kinase 1 (ASK1) Inhibitors” (ACS Med Chem Lett, 2020), this text covers Papp A→B and Vd for two compounds.

What is called Papp A→B is the apparent permeability from the apical to the basolateral side of a cell layer. As for `COc1nn(-c2cnccn2)cc1C(=O)Nc1cccc(-c2nncn2C(C)C)n1`, the Papp A→B with P-gp (MDR1), human amounted to 5 ×10⁻⁶ cm/s. Further, the Vd in series [1] was 2.3 L/kg.
In the same order, the values of `C[C@H]1CCCOc2nn(C)cc2C(=O)Nc2cccc(n2)-c2nncn21` are 1.8 ×10⁻⁶ cm/s and 2.7 L/kg.
